Assay results taken from the supplement of paper PMC8882468.

How the values were obtained:
Assay in all cases: CTG-3D luminescence at 96 h relative to day-0 seeding control (ratio to day 0); higher = more growth / less cytotoxicity; PDxO 3D drug screen (set 2), 96 h, CTG-3D normalised to day-0 seeding control.
HCI-019 = system: HCI-019 (organoid from a triple-negative breast cancer xenograft)
HCI-015 = system: HCI-015 (organoid from a triple-negative breast cancer xenograft)
HCI-008 = system: HCI-008 (organoid from a HER2-enriched breast cancer xenograft)
HCI-027 = system: HCI-027 (organoid from a triple-negative breast cancer xenograft)
HCI-025 = system: HCI-025 (organoid from a breast cancer xenograft)

Cc1c(CN2CCN(C(=O)[C@H](C)O)CC2)sc2c(N3CCOCC3)nc(-c3cnc(N)nc3)nc12 [apitolisib]
CTG-3D luminescence at 96 h
Settings	12.5 pM	0.00025 µM	0.005 µM	0.1 µM	1 µM	10 µM	100 µM	625 fM
HCI-008, days in culture: 325	1.41	2	1.65	1.78	0.742	0.507	0.435	1.77
HCI-008, days in culture: 340	1.4	1.81	1.5	0.702	0.415	–	0.351	1.52
HCI-008, days in culture: 354	1.55	1.16	2.04	1.34	0.285	0.344	0.491	1.32
HCI-008, days in culture: 382	1.87	1.72	0.949	0.687	0.13	0.258	0.331	1.49
HCI-015, days in culture: 333	2.19	1.99	1.89	1.33	0.434	0.445	0.394	1.94
HCI-015, days in culture: 355	2.9	4.1	1.01	2.04	0.803	0.711	0.182	1.38
HCI-015, days in culture: 369	2.06	1.76	2.05	1.61	0.917	0.622	0.691	1.69
HCI-019, days in culture: 173	2.46	1.25	0.933	2.29	0.88	0.36	0.336	1.93
HCI-019, days in culture: 194	1.95	1.96	2.18	0.828	0.744	0.462	0.305	1.85
HCI-019, days in culture: 215	0.992	1.33	1.51	0.699	0.362	0.15	0.168	1.4
HCI-025, days in culture: 175	1.49	1.72	1.53	1.89	0.73	0.467	0.419	1.16
HCI-025, days in culture: 189	1.77	1.49	1.66	1.41	0.518	0.179	0.121	2.67
HCI-025, days in culture: 212	2.2	3.51	2.34	0.777	0.534	0.218	0.139	0.788
HCI-025, days in culture: 224	2.45	2.02	2.09	1.35	0.679	0.351	0.267	2
HCI-027, days in culture: 145	1.36	2	1.85	1.14	0.404	0.297	0.262	1.64
HCI-027, days in culture: 158	2.21	2.37	2.99	2.07	0.609	1.12	0.342	6.72
HCI-027, days in culture: 164	1.35	2.18	2.6	1.92	0.894	0.441	0.389	1.48
HCI-027, days in culture: 176	3.68	2.63	1.06	1.66	0.9	0.431	0.271	1.29
HCI-027, days in culture: 186	1.37	1.93	1.13	0.973	0.319	0.706	0.112	2.34

COc1cccc2c1C(=O)c1c(O)c3c(c(O)c1C2=O)C[C@@](O)(C(=O)CO)C[C@@H]3O[C@H]1C[C@H](N)[C@@H](O)[C@H](C)O1 [epirubicin]
CTG-3D luminescence at 96 h
Settings	12.5 pM	0.00025 µM	0.005 µM	0.1 µM	1 µM	10 µM	100 µM	625 fM
HCI-008, days in culture: 325	1.57	2.58	1.67	1.91	0.784	0.192	-0.00523	1.81
HCI-008, days in culture: 340	1.38	1.84	1.52	1	0.612	–	-0.0051	1.34
HCI-008, days in culture: 354	1.58	0.918	1.45	0.732	0.524	0.2	0.00146	1.46
HCI-008, days in culture: 382	1.97	1.33	1.3	1.6	0.222	0.161	-0.000657	1.49
HCI-015, days in culture: 333	2.58	1.36	1.49	0.405	0.191	0.0651	0.000859	1.94
HCI-015, days in culture: 355	2.99	2	0.533	0.761	0.192	0.0805	0.00144	1.85
HCI-015, days in culture: 369	2	1.58	2.14	0.514	0.143	0.117	0.000973	2.07
HCI-019, days in culture: 173	2.56	0.82	0.796	0.682	0.176	0.0215	-0.00415	2.04
HCI-019, days in culture: 194	1.08	1.73	0.897	0.514	0.126	0.00997	-0.00363	2.03
HCI-019, days in culture: 215	1.08	1.32	1.32	0.384	0.205	0.0145	-0.000778	1.97
HCI-025, days in culture: 175	1.67	1.16	0.961	0.846	0.14	0.0198	-0.00458	1.31
HCI-025, days in culture: 189	2.65	2.38	1.58	1.14	0.108	0.00904	-0.0017	2.54
HCI-025, days in culture: 212	1.54	2.81	3.5	1.27	0.125	0.0162	-0.000834	1.07
HCI-025, days in culture: 224	1.88	2.11	1.45	0.576	0.0783	0.0108	-0.00319	1.79
HCI-027, days in culture: 145	1.6	2.63	1.78	0.146	0.087	0.0692	-0.00274	1.49
HCI-027, days in culture: 158	3.01	2.81	2.46	0.544	0.0846	0.202	-0.00223	4.2
HCI-027, days in culture: 164	2.5	1.5	1.53	0.169	0.142	0.104	-0.00102	3.34
HCI-027, days in culture: 176	3.02	2.26	1.43	0.676	0.0317	0.0395	-0.000121	2.01
HCI-027, days in culture: 186	1.68	0.902	1.46	0.866	0.0439	0.0934	-0.00168	2.13

CO[C@H]1C[C@@H]2CC[C@@H](C)[C@@](O)(O2)C(=O)C(=O)N2CCCC[C@H]2C(=O)O[C@H]([C@H](C)C[C@@H]2CC[C@@H](OCCO)[C@H](OC)C2)CC(=O)[C@H](C)/C=C(\C)[C@@H](O)[C@@H](OC)C(=O)[C@H](C)C[C@H](C)/C=C/C=C/C=C/1C [everolimus]
CTG-3D luminescence at 96 h
Settings	12.5 pM	0.00025 µM	0.005 µM	0.1 µM	1 µM	10 µM	100 µM	625 fM
HCI-008, days in culture: 325	0.998	1.62	1.03	2.85	2.2	1.15	-0.00335	1.28
HCI-008, days in culture: 340	1.1	1.26	1.65	0.457	1.04	–	-0.000653	1.09
HCI-008, days in culture: 354	1.49	0.714	2.05	0.859	0.973	0.697	-0.00248	0.841
HCI-008, days in culture: 382	1.54	1.42	1.04	1.1	0.451	0.406	-0.000828	1.26
HCI-015, days in culture: 333	1.5	1.05	0.891	0.744	0.932	0.782	0.00101	1.51
HCI-015, days in culture: 355	2.02	1.85	1.47	1.79	0.526	0.358	-0.00285	1.7
HCI-015, days in culture: 369	1.97	1.19	1.91	1.52	1.84	1.12	-0.00186	1.61
HCI-019, days in culture: 173	1.57	1.31	1.21	1.38	1.1	0.954	0.000122	1.63
HCI-019, days in culture: 194	1.27	0.886	1.15	1.13	1.33	0.725	-0.00106	1.7
HCI-019, days in culture: 215	0.96	0.554	0.902	0.622	0.482	0.326	0.000571	1.76
HCI-025, days in culture: 175	1.08	0.994	0.949	1.13	1.44	1.35	0.00118	1.41
HCI-025, days in culture: 189	1.44	1.22	1.34	1.21	0.974	0.917	0.000135	2.02
HCI-025, days in culture: 212	1.18	2.27	2.08	0.487	0.322	0.167	-0.000795	1.43
HCI-025, days in culture: 224	1.8	2.05	1.58	0.608	0.581	0.366	-0.00196	1.74
HCI-027, days in culture: 145	1.16	1.53	1.5	1.39	1.19	0.742	-0.00159	1.87
HCI-027, days in culture: 158	1.27	1.84	2.74	2.29	2.53	0.866	-0.00155	5.49
HCI-027, days in culture: 164	2.66	1.52	1.32	1.43	0.817	0.404	0.000466	2.04
HCI-027, days in culture: 176	2.43	2.12	1.35	1.31	1.44	0.309	0.000718	2.75
HCI-027, days in culture: 186	1.24	1.55	2.18	1.05	0.291	0.288	0.00707	3.1
